Measured values published in article PMC6930660, “Synthesis and Comparative Structure–Activity Study of Carbohydrate-Based Phenolic Compounds as α-Glucosidase Inhibitors and Antioxidants” (Molecules, 2019).

Tests used:
[1] = DPPH radical scavenging assay (antioxidant activity); settings: for EC50: MES-NaOH buffer pH 6.0, 15 min in the dark
Experimental: The antioxidant activity was assessed by employing the 2,2-diphenyl-1-picrylhydrazyl (DPPH) radical scavenging assay, according to the previously published method. In total, 100 μL of each sample (1000–10 μg/mL in 50%EtOH/ H2O ) or trolox (160–0 μM in 50% EtOH/ H2O ), and 50 μL of 2-(N-morpholino)ethanesulfonic acid (MES)-NaOH buffer (200 mM, pH = 6.0), and 50 μL of an 800 μM DPPH diluted in 99.5% EtOH were mixed in 96-well plates. Following shaking the microplate for 15 min in the dark, the absorbance was recorded at 520 nm using a microplate reader (Bio-Rad, Model 680). Effective percentages (%) were calculated as follows: Effective percentages (%) = 1−As/Ab ×100 where As is the absorbance of the sample and Ab is the absorbance of the blank (without samples, 50% EtOH/ H2O solution was used instead).
The trolox-equivalent (sample-mol/trolox-mol) was calculated as follows: Trolox−equivalent (mol−trolox/mol−sample) = Ss/St where Ss is the slope of the sample and St is the slope of trolox.

[2] = dissolution of the sample in water for the α-glucosidase assay; type: physicochemical; parameters: key: −: Did not dissolve in water; settings: samples prepared in H2O
Experimental: (§1) The α-glucosidase inhibitory activity of all samples was assayed utilizing a commercially available FUJIFILM α-glucosidase inhibitory activity assay kit. In total, 25 μL of each sample (25–2000 μg/mL in H2O ) or acarbose (0.5–8 μg/mL in H2O ), 50 μL of 18.5 mM maltose diluted in maleic anhydride buffer (100 mM, pH = 6.0), and 25 μL of the rat α-glucosidase solution were incubated in a micro-tube at 37 °C for 30 min. Subsequently, 400 μL of purified water was added to the solution and the reaction mixture was boiled for 3 min to deactivate α-glucosidase. The generated glucose was measured by LabAssay™ glucose (mutarotase-GOD method). In total, 100 μL of the reaction solution and 150 μL of the coloring solution were incubated in 96-well plates at 37 °C for 10 min, and the absorbance was recorded at 505 nm using a microplate reader (Bio-Rad, Model 680). The inhibition percentage was calculated using the following Equation: Inhibition percentage (%) = 1−As−Ab/Ac ×100 where As is the absorbance of the analyzed sample, Ab is the absorbance of the blank (immediate deactivation), and Ac is the absorbance of the control ([…]). Acarbose was used as the positive control.

rat α-glucosidase = assay: α-glucosidase inhibitory activity assay (FUJIFILM kit, maltose substrate, glucose measured by mutarotase-GOD method); type: biochemical; settings: rat α-glucosidase, 18.5 mM maltose, maleic anhydride buffer pH 6.0, 37 °C, 30 min; mean ± S.D. of n = 2
Experimental: as §1

EC50 ([1]; mean ± S.D. of n = 3) [µM]	solubility in water (no α-glucosidase IC50 obtained) [2]	IC50 (rat α-glucosidase) [µM]	SMILES	antioxidant activity (in words) [1]	Antioxidant Trolox-eq (TE) ([1]; trolox-equivalent (mol-trolox/mol-sample) = slope of sample / slope of trolox, mean ± S.D. of n = 3)
> 78	−^d	–	O=C(OC[C@H]1OC[C@H](OC(=O)c2cccc(O)c2)[C@@H](OC(=O)c2cccc(O)c2)[C@@H]1OC(=O)c1cccc(O)c1)c1cccc(O)c1 [Compound 57, 1,5-Anhydro-2,3,4,6-tetrakis-O-(3-hydroxybenzoyl)-D-glucitol]	no antioxidant activity was observed	–
> 78	−^d	–	O=C(OC[C@H]1OC[C@H](OC(=O)c2ccc(O)cc2)[C@@H](OC(=O)c2ccc(O)cc2)[C@@H]1OC(=O)c1ccc(O)cc1)c1ccc(O)cc1 [Compound 58, 1,5-Anhydro-2,3,4,6-tetrakis-O-(4-hydroxybenzoyl)-D-glucitol]	no antioxidant activity was observed	–
11.9 ± 0.71	–	55 ± 8.84	O=C(OC[C@H]1OC[C@H](O)[C@@H](OC(=O)c2cc(O)c(O)c(O)c2)[C@@H]1O)c1cc(O)c(O)c(O)c1 [Compound 39, 1,5-Anhydro-3,6-bis-O-(3′,4′,5′-trihydroxybenzoyl)-D-glucitol]	–	3.67 ± 0.19
